Laboratory results from US11267802B2 (BEBETTER MED INC., priority 2015, dated 2022).

Key:
EGFR T790M/L858R = target: T1, EGFR T790M/L858R (Homo sapiens, UniProt P00533, L858R/T790M); assay: Mutant EGFR T790M/L858R activity inhibition assay (Caliper mobility shift); type: biochemical; settings: read-out: enzyme activity inhibition (IC50) EGFR T790M/L858R
T1 construct: purchased Invitrogen PR8911A
Procedure: The assay procedure is as follows. […] 5 μl of the compound dissolved in 10% DMSO at a concentration of 5-fold of the final reaction concentration was added to a 384 well plate. 5 μl of 10% DMSO was used in a no-compound control well, while 5 μl of a kinase buffer was used in a no-enzyme activity control well. […] The conversion rate was read on Caliper EZ Reader II (Caliper Life Sciences). The conversion rate was then converted to inhibitory rate.
As used herein, “max” refers to the conversion rate of the DMSO no-compound control well, and “min” refers to the conversion rate of the no-enzyme activity control well. A curve was obtained by plotting the inhibitory rate as a function of the compound concentration. The XLFit excel add-in version 4.3.1 software was used to fit the curve and calculate the IC50. Inhibitory rate %=(max−conversion rate)/(max−min)×100.

H1975 = assay: Inhibition assay on tumor cell proliferation (CellTiter-Glo), H1975; type: cell-based, Human; settings: H1975 (L858R and T790M EGFR double mutation), 72 hours, 10% bovine serum
LOVO = assay: Inhibition assay on tumor cell proliferation (CellTiter-Glo), LOVO; type: cell-based, Human; settings: LOVO (wild-type EGFR), 72 hours, 10% bovine serum
Procedure: (§1) By using a CellTiter-Glo luminescence cell viability test kit (Promega, # G7572), the content of adenosine triphosphate (ATP) was determined to assess the cell viability.
(§2) Human colon cancer cell line LOVO and human non-small-cell lung cancer H358 express wild-type EGFR. Human non-small-cell lung cancer cell line HCC827 carries deletion mutation in exon 19 (ex19del). Those cell lines are purchased from Shanghai Fudan IBS Cell Resource Center and American Tissue Culture Collection (ATCC).
(§3) The assay procedure is as follows. The cells in a cell culture plate were digested with a pancreatic enzyme, re-suspended in a DPBS culture medium, and had the cell density counted by Scepter automated cytometer (Millipore # PHCC00000). The cells were diluted to a solution of 44,000 cells per ml. The cell solution with adjusted density was added to the cell assay plate at 90 microliters per well. The plate was placed in an incubator with 5% CO2 at 37° C. for 24 hours of incubation, and then added with different concentrations of subject compounds. The cells were incubated for 72 hours with the compounds in presence of 10% bovine serum. The content of ATP was determined by a CellTiter-Glo® Luminescent Cell Viability Assay kit (see the manufacturer's instruction for details) to evaluate cell-growth inhibition.
(§4) Briefly, 30 μl of CellTiter-Glo® reagent was added to each well, and then shaken for 10 minutes to induce cell lysis. The fluorescent signal was detected and recorded by Fluoroskan Ascent FL (Thermo). The max signal value was obtained from the cells treated by dimethyl sulfoxide for 72 hours. The min signal value was obtained from the medium alone (the number of the cells was 0). Inhibitory rate %=(max signal value−compound signal value)/(max signal value−min signal value)×100. The data was processed by GraphPad Prism V5.0 software (GraphPad Software, San Diego, Calif.). Sigmoidal dose-response curve fitting was performed to calculate the IC50 value.

H358 = assay: Inhibition assay on tumor cell proliferation (CellTiter-Glo), H358; type: cell-based, Human; settings: H358 (wild-type EGFR), 72 hours, 10% bovine serum
Procedure: as §1, §2, §3, §4

[1] = Pharmacokinetics in rats after oral administration; type: in vivo, SD rats; settings: for AUC(0-inf) / Cmax / Tmax / half-life / AUC(0-t): male, SD, rat, 20 mg/kg, plasma; for AUC(0-t): read-out: AUC0-24
Procedure: Male SD rats weighing 250-300 g, or male beagles weighing 9-10 kg, were fasted overnight before the experiment. The object compounds were dissolved in 30% sulfobutylated beta-cyclodextrin (SBE-β-CD), and orally administrated to the rats at a dose of 20 mg/kg or to the beagles at a dose of 5 mg/kg. Blood samples were taken at 15 minutes, 30 minutes, 1 hour, 2 hours, 3 hours, 4 hours, 6 hours, 8 hours and 24 hours after administration. 0.3 ml of blood was collected at every time point, placed in a centrifuge tube containing K2-EDTA (ethylenediamine tetraacetic acid dipotassium) and centrifuged (2,000 g, 10 minutes, 4° C.) to collect plasma, which was then stored in an ultra cold storage freezer at −80° C. 50 μL of plasma sample was mixed with 5 μL of internal standard (IS), and then extracted with ethyl acetate. After vacuum drying, the residue was re-dissolved in acetonitrile. The sample was filtered and injected into LC-MS/MS for analysis.

T1 sequence (P00533 25-1210 T790M/L858R): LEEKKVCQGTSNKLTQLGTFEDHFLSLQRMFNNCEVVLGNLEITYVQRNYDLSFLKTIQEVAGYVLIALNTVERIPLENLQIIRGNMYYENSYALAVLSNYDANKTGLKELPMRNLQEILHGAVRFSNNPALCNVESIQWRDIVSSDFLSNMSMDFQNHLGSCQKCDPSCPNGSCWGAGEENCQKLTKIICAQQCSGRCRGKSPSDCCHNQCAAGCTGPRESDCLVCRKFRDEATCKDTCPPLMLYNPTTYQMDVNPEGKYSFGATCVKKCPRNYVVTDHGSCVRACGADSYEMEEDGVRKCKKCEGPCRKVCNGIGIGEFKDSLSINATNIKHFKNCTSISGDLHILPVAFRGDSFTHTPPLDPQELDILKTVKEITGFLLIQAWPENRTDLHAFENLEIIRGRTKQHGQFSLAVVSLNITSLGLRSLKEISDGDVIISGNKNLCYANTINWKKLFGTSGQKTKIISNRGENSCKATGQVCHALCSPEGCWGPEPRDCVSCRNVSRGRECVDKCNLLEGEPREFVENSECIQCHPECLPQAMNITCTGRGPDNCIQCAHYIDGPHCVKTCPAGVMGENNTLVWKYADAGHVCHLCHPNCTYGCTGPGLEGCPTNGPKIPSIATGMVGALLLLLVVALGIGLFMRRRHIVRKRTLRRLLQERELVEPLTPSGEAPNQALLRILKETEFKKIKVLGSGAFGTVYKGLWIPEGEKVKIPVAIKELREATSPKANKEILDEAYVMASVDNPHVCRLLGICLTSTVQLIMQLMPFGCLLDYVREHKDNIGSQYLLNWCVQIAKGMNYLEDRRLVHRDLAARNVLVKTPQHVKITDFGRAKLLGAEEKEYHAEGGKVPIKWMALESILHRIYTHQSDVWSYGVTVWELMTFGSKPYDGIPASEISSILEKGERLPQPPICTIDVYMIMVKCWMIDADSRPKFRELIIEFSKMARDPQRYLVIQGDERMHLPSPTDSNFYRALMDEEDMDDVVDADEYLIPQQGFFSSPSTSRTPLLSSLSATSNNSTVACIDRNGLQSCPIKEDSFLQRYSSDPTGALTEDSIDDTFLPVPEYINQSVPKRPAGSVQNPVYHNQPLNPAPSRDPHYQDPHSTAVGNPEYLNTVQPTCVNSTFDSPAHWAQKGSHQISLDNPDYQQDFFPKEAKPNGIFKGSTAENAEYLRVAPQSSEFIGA

IC50 (EGFR T790M/L858R) [nM] | IC50 (H1975; Homo sapiens, NCI-H1975) [nM] | IC50 (H358; Homo sapiens, NCI-H358) [nM] | melting point [°C] | SMILES | other results
< 1 | < 10 | 100 to 1000 | 187 to 188 | C=CC(=O)Nc1cc(Nc2nccc(-n3c(=O)n(CC=C(C)C)c4ccccc43)n2)c(OC)cc1N(C)CCN(C)C [Compound 62, N-(2-((2-(dimethylamino)ethyl)(methyl)amino)-4-methoxy-5-(4-(3-(3-methylbut-2-enyl)-2-oxo-2,3-dihydro-1H-benzo[d]imidazol-1-yl)pyrimidin-2-ylamino)phenyl)acrylamide] | absorption / blood exposure after oral administration (in words) [1]: well absorbed, with high blood exposure; AUC(0-inf) [1]: 920 ng·h/mL; Cmax [1]: 84 ng/mL; Tmax [1]: 3.7 h; half-life [1]: 6.8 h; AUC(0-t) [1]: 834 ng·h/mL
< 1 | < 10 | 100 to 1000 |  | C=CC(=O)Nc1cc(Nc2ncc(C)c(-n3ccc4ccccc43)n2)c(OC)cc1N(C)CCN(C)C [Compound 8, N-(5-((4-(1H-indol-1-yl)-5-methylpyrimidin-2-yl)amino)-2-((2-(dimethylamino)ethyl)(methyl)amino)-4-methoxyphenyl)acrylamide] | IC50 (LOVO; Homo sapiens): > 1000 nM
1 to 10 | 100 to 1000 | 100 to 1000 |  | COc1cc(N(C)CCN(C)C)c(NC(=O)/C=C/CN2CCCCC2)cc1Nc1nccc(-n2ccc3ccccc32)n1 [Compound 70, (E)-N-(5-(4-(1H-indol-1-yl)pyrimidin-2-ylamino)-2-((2-(dimethylamino)ethyl)(methyl)amino)-4-methoxyphenyl)-4-(piperidin-1-yl)but-2-enamide] | IC50 (LOVO; Homo sapiens): 100 to 1000 nM
< 1 | < 10 | > 1000 | 179 to 181 | C=CC(=O)Nc1cc(Nc2nccc(-n3c(=O)n(C(C)C)c4ccccc43)n2)c(C)cc1N(C)CCN(C)C [Compound 127, N-(2-((2-(dimethylamino)ethyl)(methyl)amino)-5-((4-(3-isopropyl-2-oxo-2,3-dihydro-1H-benzo[d]imidazol-1-yl)pyrimidin-2-yl)amino)-4-methylphenyl)acrylamide] | 
< 1 | < 10 | 100 to 1000 | 144 to 146 | C=CC(=O)Nc1cc(Nc2nccc(-n3c(=O)n(C4CC4)c4cc(OC)ccc43)n2)c(OC)cc1N(C)CCN(C)C [Compound 102, N-(5-((4-(3-cyclopropyl-5-methoxy-2-oxo-2,3-dihydro-1H-benzo[d]imidazol-1-yl)pyrimidin-2-yl)amino)-2-((2-(dimethylamino)ethyl)(methyl)amino)-4-methoxyphenyl)acrylamide] | 
< 1 | < 10 | 100 to 1000 | 181 to 184 | C=CC(=O)Nc1cc(Nc2nccc(-n3c(=O)n(C4CC4)c4cc(F)ccc43)n2)c(OC)cc1N(C)CCN(C)C [Compound 98, N-(5-(4-(3-cyclopropyl-5-fluoro-2-oxo-2,3-dihydrobenzo[d]imidazol-1-yl)pyrimidin-2-ylamino)-2-((2-(dimethylamino)ethyl)(methyl)amino)-4-methoxyphenyl)acrylamide] | 
1 to 10 | < 10 | 100 to 1000 |  | C=CC(=O)Nc1cc(Nc2nccc(-n3ccc4cc([N+](=O)[O-])ccc43)n2)c(OC)cc1N(C)CCN(C)C [Compound 34, N-{2-[(2-Dimethylamino-ethyl)-methyl-amino]-4-methoxy-5-[4-(5-nitro-indol-1-yl)-pyrimidin-2-ylamino]-phenyl}-acryl amide] | IC50 (LOVO; Homo sapiens): > 1000 nM
< 1 | < 10 | 100 to 1000 | 85 to 90 | C=CC(=O)Nc1cc(Nc2nccc(-n3c(=O)n(C(C)C)c4ccccc43)n2)ccc1N(C)CCN(C)C [Compound 128, N-(2-((2-(dimethylamino)ethyl)(methyl)amino)-5-((4-(3-isopropyl-2-oxo-2,3-dihydro-1H-benzo[d]imidazol-1-yl)pyrimidin-2-yl)amino)phenyl)acrylamide] | 
1 to 10 | < 10 | > 1000 | 92 to 95 | C=CC(=O)Nc1cc(Nc2ncc(OC)c(-n3c(=O)n(C(C)C)c4ccccc43)n2)c(OC)cc1N(C)CCN(C)C [Compound 133, N-(2-((2-(dimethylamino)ethyl) (methyl)amino)-5-((4-(3-isopropyl-2-oxo-2,3-dihydro-1H-benzo[d]imidazol-1-yl)-5-methoxypyrimidin-2-yl)amino)-4-methoxyphenyl)acrylamide] | 
1 to 10 | 10 to 50 |  | 81 to 83 | C=CC(=O)Nc1cc(Nc2nccc(-n3ccc4ccccc43)n2)c(OC)cc1N1CC(N(C)C)C1 [Compound 77, N-(5-(4-(1H-indol-1-yl)pyrimidin-2-ylamino)-2-(3-(dimethylamino)azetidin-1-yl)-4-methoxyphenyl)acrylamide] | IC50 (LOVO; Homo sapiens): > 1000 nM
< 1 | < 10 | > 1000 | 150 to 153 | C=CC(=O)Nc1cc(Nc2nccc(-n3ccc4cc(Cl)ccc43)n2)c(OC)cc1N(C)CCN(C)C [Compound 31, N-(5-((4-(5-chloro-1H-indol-1-yl)pyrimidin-2-yl)amino)-2-((2-(dimethylamino)ethyl)(methyl)amino)-4-methoxyphenyl)acrylamide] | 
< 1 | < 10 | 100 to 1000 | 127 to 129 | C=CC(=O)Nc1cc(Nc2nccc(-n3ccc4nc(Cl)ccc43)n2)c(OC)cc1N(C)CCN(C)C [Compound 124, N-(5-((4-(5-chloro-1H-pyrrolo[3,2-b]pyridin-1-yl)pyrimidin-2-yl)amino)-2-((2-(dimethylamino)ethyl)(methyl)amino)-4-methoxyphenyl)acrylamide] | absorption / blood exposure after oral administration (in words) [1]: well absorbed, with high blood exposure; AUC(0-inf) [1]: 1790 ng·h/mL; Cmax [1]: 327 ng/mL; Tmax [1]: 1.7 h; half-life [1]: 6.1 h; AUC(0-t) [1]: 1700 ng·h/mL
1 to 10 | < 10 | 100 to 1000 | 95 to 98 | C=CC(=O)Nc1cc(Nc2nccc(-n3c(=O)n(C(C)C)c4cc(OC)ccc43)n2)c(OC)cc1N(C)CCN(C)C [Compound 138, N-(2-((2-(dimethylamino)ethyl)(methyl)amino)-5-((4-(3-isopropyl-5-methoxy-2-oxo-2,3-dihydro-1H-benzo[d]imidazol-1-yl)pyrimidin-2-yl)amino)-4-methoxyphenyl)acrylamide] | 

SMILES | IC50 (EGFR T790M/L858R) [nM] | IC50 (H1975; Homo sapiens, NCI-H1975) [nM] | IC50 (H358; Homo sapiens, NCI-H358) [nM] | melting point [°C] | other results
C=CC(=O)Nc1cc(Nc2nccc(-n3c(=O)n(C)c4cc(OC)ccc43)n2)c(OC)cc1N(C)CCN(C)C [Compound 53, N-(2-((2-(dimethylamino)ethyl) (methyl)amino)-4-methoxy-5-((4-(5-methoxy-3-methyl-2-oxo-2,3-dihydro-1H-benzo[d]imidazol-1-yl)pyrimidin-2-yl)amino)phenyl)acryl amide] | < 1 |  |  |  | IC50 (H1975): 10 to 50 nM; IC50 (LOVO): > 1000 nM; IC50 (H358): 50 to 100 nM
